{"source": "patent US20240053345A1", "about": "“POLYPEPTIDES BINDING SELECTIVELY HEPARIN OR HEPARAN SULFATE GLYCOSAMINOGLYCANS AND CELL-PENETRATING POLYPEPTIDES COMPRISING THE SAME” (SORBONNE UNIVERSITE, priority 2020, published 2024)", "key": {"CaOV-3 cells": {"system": "CaOV-3 cells", "experiment": "Internalization of peptides in CaOV-3 cells", "format": "cell-based, human", "conditions": "for internalization efficacy in CaOV-3 compared to CHO-K1 / intracellular concentration of internalized peptide: 1 h at 37° C.; for intracellular concentration of internalized peptide: 1 pmol in 1 million cells taken as 1 μM (1 pL/cell)", "description": "(§1) FIG. 2: Quantification of the internalization of peptides, studied in GAGs-deficient cells CHO-745 (white bar), wild type cells CHO-K1 (light grey bar) and two ovarian adenocarcinoma cells CaOV-3 (dark grey bar) and SKOV-3 (black bar) after 1 h incubation at 37° C. Experiments were done in duplicate or triplicate and repeated at least three times independently. Significance was tested using a student's t-test (NS:p>0.05, *0.05>p>0.01, **0.01>p>0.001, ***0.001>p).\n(§2) FIG. 3: Quantification of internalization of chimeric peptides P1, P3 and P5 in cells CHO-745 (a,b) and in CaOV-3 cells (c,d). Peptides were incubated with cells for 1 h along with heparin (a) or chondroitin sulfate-E (b). P1 was also incubated with CaOV-3 for 1 h along with heparin (c) and P3 incubated with CaOV-3 in the presence of CS-E (d) at different concentrations. Experiments were done in duplicate or triplicate and repeated at least three times independently.\n(§3) Peptides listed in Table 1 were incubated separately in the following four ovarian cell types which have different GAGs types and expression levels: wild type CHO-K1 (expressing heparan sulfate (HS), chondroitin sulfate A (CSA) and C (CSC)), CHO-pgs A475 (CHO-745) (genetically modified to express only 5-10% HS and CS), two human ovarian adenocarcinoma cells CaOV-3 (overexpressing HS and CSE) and SKOV-3 (overexpressing CSE). Peptides were incubated with one million cells at 37° C. for 1 h.\n(§4) Wild type Chinese Hamster Ovary (CHO-K1) cells and GAGs-deficient mutant CHO-745 cells which lack the xylosyltransferase needed for glycosaminoglycan (GAG) synthesis were grown in Dulbecco's modified Eagle's medium F-12 (DMEMF-12) with L-glutamine and 15 mM HEPES. HEK cells and HeLa cells were grown in DMEM with 4.5 g/L D-glucose and pyruvate. Two types of human ovarian cancer cell lines CaOV-3 and SKOV-3 were cultured in DMEM with Glutamax and McCoy's 5A medium, respectively. All complete culture medium was supplemented with 10% fetal bovine serum, penicillin (100,000 IU/L), streptomycin (100 mg/L). Cells were grown in a humidified atmosphere at 37° C. and 5% CO2.\n(§5) Tested Peptides were incubated separately in the following two ovarian cell types: CHO-745 and CaOV-3. The inventors incubated (7.5 μM) peptides with cells lines for 1 h along with exogenous heparin (HI) or chondroitin-4,6-sulfate (CSE) and quantified the internalized peptides by MS."}, "[1]": {"system": "CHO-745, CHO-K1, CaOV-3 and SKOV-3 cells", "experiment": "Quantification of internalization of peptides in four cell lines", "format": "cell-based", "conditions": "CHO-K1 or the two ovarian cancer cells (CaOV-3, SKOV-3) vs CHO-745; 1 h incubation at 37° C.", "description": "as §1, §3, §4"}, "SKOV-3 cells": {"system": "SKOV-3 cells", "experiment": "Internalization of peptides in SKOV-3 cells, also after sodium chlorate or GAG-specific enzyme pre-treatment", "format": "cell-based, human", "conditions": "for internalization after chondroitinase ABC (ChABC) treatment: enzyme pre-treatment 2 h; for internalization after heparinases cocktail treatment: heparinases I, II and III pre-treatment 2 h; for cellular uptake in SKOV-3 compared to CHO-K1: 1 h at 37° C.", "description": "as §1\nFIG. 4: Quantification of P3 after SKOV-3 pre-treatment with sodium chlorate for 24 h or GAG-specific enzymes for 2 h (a) and P1 after SKOV-3 pre-treatment with GAG-specific enzymes for 2 h (b). Experiments were done in duplicate or triplicate and repeated at least three times independently. Significance was tested using a student's t-test (NS:p>0.05, *0.05>p>0.01, **0.01>p>0.001, ***0.001>p).\nas §3, §4\nTested Peptides were incubated separately in the following ovarian cell type: SKOV-3. A pre-treatment with sodium chlorate for 24 h or GAG-specific enzymes for 2 h.\nThe inventors used different concentrations of chlorate to treat SKOV-3 and analyzed the internalization of P3. […] The inventors also checked that there is no cytotoxicity generated by 100 mM concentration of NaClO3. […] Not merely impairment of sulfation leads to significant P3 internalization decline, enzymatic GAGs degradation might also impact on peptide internalization. They used two specific enzymes: one is the blend of heparinases I, II and III that are extracted from Flavobacterium heparinum and hydrolyze the glycosidic bonds of glucosamine and uronic acids; the other one is chondroitinase ABC (ChABC) lyase purified from Proteus Vulgaris that specifically catalyzes the degradation of chondroitin 4-sulfate, chondroitin 6-sulfate containing (1-4)-β-D-hexosaminyl and (1-3)-β-D-glucuronosyl or (1-3)-α-L-iduronosyl linkages to disaccharides containing 4-deoxy-β-D-gluc-4-enuronosyl groups."}, "[2]": {"experiment": "Binding to chondroitin sulfate-E"}, "blood cells": {"system": "blood cells", "experiment": "Hemolysis", "format": "cell-based", "conditions": "even at 50 μM for 2 h", "method": "The inventors tested cytotoxicity and hemolysis activity of the peptides incubated with CHO-K1 cells at different concentrations."}, "CHO-745 cells": {"system": "CHO-745 cells", "experiment": "Internalization of peptides in GAGs-deficient cells with exogenous GAGs, quantified by MS", "format": "cell-based, Chinese Hamster", "conditions": "for cellular quantity of internalized peptide: 7.5 μM peptide", "description": "as §2\nFIG. 5: The effect of heparin favoring P1 internalization can be reversed by addition of heparinase in […].\nas §4, §5\nP1 was incubated in the CHO-745 ovarian cell type with different concentrations of heparinase. Cells culture are similar to the example 1."}, "[3]": {"conditions": "co-incubation with 7.2 μg/ml HI, 1 h"}, "[4]": {"conditions": "co-incubation with 7.2 μg/ml CSE, 1 h"}}, "note": "Where a SMILES comes first, the peptide text is derived from it. The star is where a group is joined. Biotin = O=C1N[C@H]2[C@H](CS[C@H]2CCCCC(=O)*)N1", "data": [{"compound": "SQIKIWFQNKRAKIKK [En2H3, Ac-SQIKIWFQNKRAKIKK-NH2]", "values": [{"measurement": "internalization efficacy in CaOV-3 compared to CHO-K1", "setting": "CaOV-3 cells", "value": "increased their internalization efficacy"}, {"measurement": "intracellular concentration of internalized peptide", "setting": "CaOV-3 cells; CaOV-3", "value": 7, "unit": "µM"}, {"measurement": "internalization compared with CHO-745 cells", "setting": "[1]", "value": "entered significantly more"}]}, {"compound": "CC[C@H](C)[C@H](NC(=O)[C@H](CCCCN)NC(=O)[C@H](C)NC(=O)[C@H](CCCNC(=N)N)NC(=O)[C@H](CCCCN)NC(=O)[C@H](CC(N)=O)NC(=O)[C@H](CCC(N)=O)NC(=O)[C@H](Cc1ccccc1)NC(=O)[C@H](Cc1c[nH]c2ccccc12)NC(=O)[C@@H](NC(=O)[C@H](CCCCN)NC(=O)[C@@H](NC(=O)[C@H](CCC(N)=O)NC(=O)[C@H](CO)NC(=O)[C@H](CCCNC(=N)N)NC(=O)[C@@H]1CCCN1C(=O)[C@H](CCCNC(=N)N)NC(=O)[C@H](CCCCN)NC(=O)[C@H](CC(=O)O)NC(=O)[C@H](CCC(=O)O)NC(=O)[C@H](CCCCN)NC(=O)[C@H](CC(N)=O)NC(=O)[C@@H]1CCCN1C(=O)[C@H](CC(N)=O)NC(=O)[C@H](CCCCN)NC(=O)[C@H](CCCCN)NC(=O)[C@H](CCCCN)NC(=O)[C@@H]1CCCN1C(=O)[C@H](CCCCN)NC(=O)[C@H](CCCNC(=N)N)NC(=O)[C@H](CO)NC(=O)[C@H](CCCNC(=N)N)NC(=O)CNC(=O)CNC(=O)CNC(=O)CNC(=O)CNC(=O)CCCC[C@@H]1SC[C@@H]2NC(=O)N[C@@H]21)[C@@H](C)CC)[C@@H](C)CC)C(=O)N[C@@H](CCCCN)C(=O)N[C@@H](CCCCN)C(N)=O", "note": "[P1, Biotin-G5-RSRKPKKKNPNKEDKRPR SQIKIWFQNKRAKIKK-NH2] (Biotin-GGGGGRSRKPKKKNPNKEDKRPRSQIKIWFQNKRAKIKK-NH2)", "values": [{"measurement": "internalization after chondroitinase ABC (ChABC) treatment", "setting": "SKOV-3 cells; SKOV-3", "value": "decrease"}, {"measurement": "internalization after heparinases cocktail treatment", "setting": "SKOV-3 cells; SKOV-3", "value": "decrease"}, {"measurement": "binding to CSE", "setting": "[2]", "value": "high binding affinity"}, {"measurement": "cytotoxicity", "setting": "CHO-K1 cells", "value": "not Cytotoxic"}, {"measurement": "hemolysis of blood cells", "setting": "blood cells", "value": "no hemolysis"}, {"measurement": "cellular quantity of internalized peptide", "setting": "CHO-745 cells; [3]", "value": "around 21 pmol"}, {"measurement": "effect of CSE addition on internalization", "setting": "CHO-745 cells; exogenous CSE, 1 h", "value": "made no effect"}, {"measurement": "effect of degradation fragments of HI on internalization", "setting": "CHO-745 cells; heparin degraded by heparinase", "value": "lost the ability"}, {"measurement": "effect of intact HI on internalization", "setting": "CHO-745 cells; intact heparin", "value": "promoted P1 internalization"}, {"measurement": "internalization efficacy in CaOV-3 compared to CHO-K1", "setting": "CaOV-3 cells", "value": "increased their internalization efficacy"}, {"measurement": "intracellular concentration of internalized peptide", "setting": "CaOV-3 cells; CaOV-3", "value": 7, "unit": "µM"}, {"measurement": "effect of HI on relative internalization", "setting": "CaOV-3 cells; CaOV-3, exogenous heparin, 1 h", "value": "favorable effect"}, {"measurement": "internalization compared with CHO-745 cells", "setting": "[1]", "value": "entered significantly more"}]}, {"compound": "Biotin-GGGG-KEDKRPRTAFTAEQL SQIKIWFQNKRAKIKK-NH2 [P5]", "values": [{"measurement": "cellular uptake in SKOV-3 compared to CHO-K1", "setting": "SKOV-3 cells", "value": "apparently increased their cellular uptake"}, {"measurement": "cellular quantity of internalized peptide", "setting": "CHO-745 cells; [4]", "value": 2.2, "unit": "pmol"}, {"measurement": "cellular quantity of internalized peptide", "setting": "CHO-745 cells; [3]", "value": "~22", "unit": "pmol"}, {"measurement": "internalization efficacy in CaOV-3 compared to CHO-K1", "setting": "CaOV-3 cells", "value": "increased their internalization efficacy"}, {"measurement": "intracellular concentration of internalized peptide", "setting": "CaOV-3 cells; CaOV-3", "value": 7, "unit": "µM"}, {"measurement": "internalization compared with CHO-745 cells", "setting": "[1]", "value": "entered significantly more"}]}, {"compound": "CC[C@H](C)[C@H](NC(=O)[C@H](CCCCN)NC(=O)[C@H](C)NC(=O)[C@H](CCCNC(=N)N)NC(=O)[C@H](CCCCN)NC(=O)[C@H](CC(N)=O)NC(=O)[C@H](CCC(N)=O)NC(=O)[C@H](Cc1ccccc1)NC(=O)[C@H](Cc1c[nH]c2ccccc12)NC(=O)[C@@H](NC(=O)[C@H](CCCCN)NC(=O)[C@@H](NC(=O)[C@H](CCC(N)=O)NC(=O)[C@H](CO)NC(=O)[C@H](CC(C)C)NC(=O)[C@H](CCC(N)=O)NC(=O)[C@H](C)NC(=O)[C@H](CCCNC(=N)N)NC(=O)[C@@H](NC(=O)[C@H](Cc1ccccc1)NC(=O)[C@@H](NC(=O)[C@@H](NC(=O)[C@H](CCCNC(=N)N)NC(=O)[C@H](CCC(=O)O)NC(=O)[C@H](CCCNC(=N)N)NC(=O)[C@H](CCCNC(=N)N)NC(=O)[C@H](CCC(N)=O)NC(=O)[C@H](CCCCN)NC(=O)[C@H](CCCNC(=N)N)NC(=O)CNC(=O)CNC(=O)CNC(=O)CNC(=O)CNC(=O)CCCC[C@@H]1SC[C@@H]2NC(=O)N[C@@H]21)[C@@H](C)O)[C@@H](C)O)[C@@H](C)O)[C@@H](C)CC)[C@@H](C)CC)C(=O)N[C@@H](CCCCN)C(=O)N[C@@H](CCCCN)C(N)=O", "note": "[P3, Biotin-G5-RKQRRERTTFTRAQL SQIKIWFQNKRAKIKK-NH2] (Biotin-GGGGGRKQRRERTTFTRAQLSQIKIWFQNKRAKIKK-NH2)", "values": [{"measurement": "cellular uptake in SKOV-3 compared to CHO-K1", "setting": "SKOV-3 cells", "value": "apparently increased their cellular uptake"}, {"measurement": "internalization after chondroitinase ABC (ChABC) treatment", "setting": "SKOV-3 cells; SKOV-3", "value": "significantly curtailed internalization"}, {"measurement": "internalization after heparinases cocktail treatment", "setting": "SKOV-3 cells; SKOV-3", "value": "almost no difference"}, {"measurement": "internalization efficacy after sodium chlorate pre-treatment", "setting": "SKOV-3 cells; SKOV-3, sodium chlorate 24 h, concentration-dependent", "value": "dramatically reduced"}, {"measurement": "cytotoxicity", "setting": "CHO-K1 cells", "value": "not Cytotoxic"}, {"measurement": "hemolysis of blood cells", "setting": "blood cells", "value": "no hemolysis"}, {"measurement": "cellular quantity of internalized peptide", "setting": "CHO-745 cells; [4]", "value": "around 6.5 pmol"}, {"measurement": "cellular quantity of internalized peptide", "setting": "CHO-745 cells; [3]", "value": "~28", "unit": "pmol"}, {"measurement": "internalization efficacy in CaOV-3 compared to CHO-K1", "setting": "CaOV-3 cells", "value": "increased their internalization efficacy"}, {"measurement": "intracellular concentration of internalized peptide", "setting": "CaOV-3 cells; CaOV-3", "value": 24, "unit": "µM"}, {"measurement": "effect of CSE addition on internalization", "setting": "CaOV-3 cells; CaOV-3, CSE 7.2 μg/ml, 1 h", "value": "evokes P3 internalization"}, {"measurement": "effect of CSE addition on internalization", "setting": "CaOV-3 cells; CaOV-3, CSE concentrations below 3.6 μg/ml, 1 h", "value": "inhibited P3 internalization"}, {"measurement": "internalization compared with CHO-745 cells", "setting": "[1]", "value": "entered significantly more"}]}]}
